How the values were obtained:
[1] = molecular target: Recombinant human His-tagged Kat6a protein (amino acids 194-810) (Homo sapiens (Human), UniProt Q92794); assay: Kat6a activity assay (TR-FRET, acetylation of biotinylated Histone-H4-derived peptide); assay type: biochemical; conditions: 60 mins at 22° C., read-out: KAT6A-DPF/HAT domain IC50 [mol/l] (arithmetic mean)
Excerpt: Kat6a inhibitory activities of the compounds described in the present invention were quantified using a Fluorescence Resonance Energy Transfer (TR-FRET) assay which measures acetylation of a synthetic, biotinylated Histone-H4-derived peptide by the enzyme.
Recombinant human His-tagged Kat6a protein (amino acids 194-810), was purified in-house from Baculovirus-infected insect cells (Sf9). Histone H4 peptide (amino acids 1-24, […]-VLRD-K(Btn)-amide), which was used as substrate, was synthesized by Biosyntan GmbH, Berlin, Germany. Acetyl Coenzyme A was purchased from Sigma-Aldrich (#A-2056).
Kat6a was incubated for 60 mins at 22° C. in the presence of different concentrations of test substances (0 μM, and within the range 0.01-20 μM) in assay buffer [25 mM Tris/HCl pH 8, 1 mM EGTA, 2.5 mM Glutathion, 0.02% Chicken Albumin, 0.05% Pluronic F127, 25 mM NaCl, 220 nM H4 peptide and 600 nM Acetyl Coenzym A].
The reaction was stopped by addition of Detection Solution (25 mM HEPES pH 7.5, 0.1% BSA, 22 nM SAXL665 (Cisbio #610SAXLE), 100 μM Anacardic Acid (Enzo #ALX-270-381), 1 nM Anti-Histone H4 (ACETYL K8) Antibody (ABCAM #AB15823) and 0.5 nM Anti-Rabbit IgG Eu (Perkin Elmer #AD0083).
The fluorescence emission at 620 nm and 665 nm after excitation at 330-350 nm was measured in a TR-FRET measuring instrument, for instance a Rubystar or a Pherastar (both from BMG Lab Technologies, Offenburg, Germany) or a Viewlux (Perkin-Elmer). The ratio of the emission at 665 nm and at […] was used as indicator of the amount of acetylated peptide.
The resulting data (ratio) were normalized, taking 0% inhibition as the mean value of control measurements where all reagents were included. In this case 50 nl DMSO were used instead of compounds. […] IC50 values were determined by regression analysis based on a 4 parameter equation (minimum, maximum, ICM, Hill; Y=Max+(Min−Max)/(1+(X/ICso) Hill) using the Screener Software (Genedata).
Table 5 depicts the IC50 values of selected examples in biochemical KAT6A and KAT6B3 assays.

[2] = tested on: ESR1 transcription (luciferase signal in MVLN cells); assay: Repression of ESR1 transcription, luciferase reporter in MVLN cells; assay type: cell-based; conditions: inhibition of luciferase signal in MVLN cells, arithmetic mean
Excerpt: Repression of ESR1 Transcription Upon Treatment of Cells with Compounds
KAT6A controls transcription of the ESR1 gene in breast cancer cells. Compound treatment that interferes with this mechanism was quantified using MVLN cells. These cells constitutively express the ER and are stably transfected with the luciferase (LUC) reporter gene and the corresponding hormone responsive element derived from the 5′-flanking region of the Xenopus Vitellogenin A2 gene (Pons et al., 1990, Demirpense et al., 1993, Joyeux et al., 1993). The repressive effect on ERα transcription activity of a test chemical is directly related to the luciferase measured in the lysate of treated MVLN cells.
Each sample was prepared as duplicate and rim wells were excluded. For luciferase signal determination 100 μl of a 1:1 mixture of Steadylite plus (Perkin Elmer; 6016759) and assay medium was added after 24 h for 15 minutes and measured in Victor X3 (Perkin Elmer). To exclude any effects caused by cell loss during the treatment, cell density was determined using Alamar Blue (Invitrogen; DAL1100). Prior to the luciferase measurement 10 μl Alamar Blue were added to each well and the plates were incubated for 2 h in the incubator. Then fluorescence was measured with Victor X3 (Perkin Elmer) at 530 nm/590 nm.

MDA-MB-436 cells = assay: Proliferation assay MDA-MB-436, negative control cell line (Alamar Blue, 144 h); assay type: cell-based; conditions: arithmetic mean
Excerpt: (§1) Proliferation Assays for Compound Characterization
(§2) For compound characterization cell survival assays were routinely run in two cell lines. ZR-75-1 is a breast carcinoma cell line containing a focal KAT6A amplification and high KAT6A protein expression. Proliferation of this cell line is inhibited upon treatment with KAT6A inhibitors. As a negative control cell line MDA-MB-436 were used. These cells carry a […] deletion of the KAT6A gene, have a low KAT6A protein expression and are not growth inhibited upon treatment with KAT6A inhibitors.
(§3) For measurements cell lines were plated at the below indicated concentration per […] in 96-well plates in a humidified incubator at 37° C. and 5% CO2.
MDA-MB-436 (CLS, 300278; breast adenocarcinoma); 3000 cells per well; culture medium: DMEM/Ham's F12 (Biochrom #FG 4815) medium containing 2.5% FBS (Biochrom #S0615).
(§4) 24 hours later, cells were treated with compounds (stock solution, 10 mM in DMSO) using the HP D300 Digital Dispenser in a concentration range of 2.0×10E-5 M to 2.0×10E-9 M in a single-dot curve with 9 dilutions and a DMSO concentration of 0.2%. Each sample was prepared as triplicate and rim wells were excluded. Plates were incubated at 37° C. and 5% CO2 for 144 h. Cell viability was measured by adding 10 μL of Alamar Blue Reagent (Invitrogen #DAL 1100) and plates were incubated for 2 h at 37° C. and 5% CO2. Fluorescence was measured at 590 nm wavelength with a Tecan Spark or Victor X3 MTP-Reader (PerkinElmer).

ZR-75-1 cells = assay: Proliferation assay ZR-75-1 (Alamar Blue, 144 h); assay type: cell-based; conditions: Homo sapiens, ZR-75-1, 144 h, arithmetic mean, read-out: ZR75-1 proliferation assay, EC50 [M] (arithmetic mean)
Excerpt: as §1, §2, §3
ZR-75-1 (ATCC, CRL-1500; breast carcinoma); 3000 cells per well; culture medium: RPMI 1640 (Biochrom #FG 1215) medium containing 2.5% FBS (Biochrom #S0615).
as §4

[3] = Homo sapiens, MDA-MB-436, 144 h

Chain of Recombinant human His-tagged Kat6a protein (amino acids 194-810) (Q92794 194-810): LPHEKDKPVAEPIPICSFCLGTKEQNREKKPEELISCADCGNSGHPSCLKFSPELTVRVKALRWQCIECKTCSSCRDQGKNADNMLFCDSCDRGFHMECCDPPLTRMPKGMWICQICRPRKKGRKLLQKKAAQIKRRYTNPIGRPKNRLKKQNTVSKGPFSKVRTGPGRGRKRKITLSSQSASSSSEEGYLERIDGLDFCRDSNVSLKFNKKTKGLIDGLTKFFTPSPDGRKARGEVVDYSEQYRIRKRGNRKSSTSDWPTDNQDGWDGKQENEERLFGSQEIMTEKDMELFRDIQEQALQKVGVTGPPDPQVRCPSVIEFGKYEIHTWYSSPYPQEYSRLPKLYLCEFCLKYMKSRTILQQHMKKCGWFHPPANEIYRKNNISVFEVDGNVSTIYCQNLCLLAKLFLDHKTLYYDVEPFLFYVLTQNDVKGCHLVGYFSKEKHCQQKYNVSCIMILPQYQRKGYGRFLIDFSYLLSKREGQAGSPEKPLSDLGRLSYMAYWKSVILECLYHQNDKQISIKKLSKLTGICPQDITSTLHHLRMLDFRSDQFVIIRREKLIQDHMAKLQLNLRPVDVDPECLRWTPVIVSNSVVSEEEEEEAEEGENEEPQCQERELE

SMILES	IC50 [1]	IC50 ([2]; Homo sapiens, MVLN)	EC50 (MDA-MB-436 cells; [3])	IC50 [2]	EC50 (MDA-MB-436 cells)	EC50 (ZR-75-1 cells)
C[C@H](Oc1cccc(OC2CCC2)c1S(=O)(=O)NC(=O)c1cc2ccc(N(C)C)cc2o1)C(F)(F)F (single isomer, unassigned) [Example 221]	0.0444 µM			0.582 µM	8.25 µM	
C[C@@H](Oc1cccc(OC2CCC2)c1S(=O)(=O)NC(=O)c1cc2ccc(N(C)C)cc2o1)C(F)(F)F (single isomer, unassigned) [Example 222]	0.0306 µM			0.595 µM	> 20 µM	
CCN(C)c1ccc2cc(C(=O)NS(=O)(=O)c3ccc(Cl)cc3Cl)oc2c1 [Example 3, N-(2,4-Dichlorophenyl)sulfonyl-6-[ethyl(methyl)amino]benzofuran-2-carboxamide]		4.28 µM	> 20 µM			2e-05 M
CN(c1ccc2cc(C(=O)NS(=O)(=O)c3ccccc3-c3ccccc3)oc2c1)C1CCCC1 [Example 46, N-([1,1′-Biphenyl]-2-sulfonyl)-6-[cyclopentyl(methyl)amino]-1-benzofuran-2-carboxamide]		> 20 µM	> 20 µM			> 2e-05 M
CCCc1ccccc1S(=O)(=O)NC(=O)c1cc2ccc(N(C)C)cc2o1 [Example 52, 6-(Dimethylamino)-N-(2-propylbenzene-1-sulfonyl)-1-benzofuran-2-carboxamide]			> 20 µM			1.94e-07 M
COc1cc(C#N)ccc1S(=O)(=O)NC(=O)c1cc2ccc(N(C)C)cc2o1 [Example 53, N-(4-Cyano-2-methoxybenzene-1-sulfonyl)-6-(dimethylamino)-1-benzofuran-2-carboxamide]	0.44 µM		> 20 µM			2.64e-07 M
CC(O)c1ccc(Cl)c(S(=O)(=O)NC(=O)c2cc3ccc(N(C)C)cc3o2)c1 (stereo not drawn) [Example 163]	4.35 µM	> 20 µM				9.38e-07 M
COCCOc1ccc(Cl)c(S(=O)(=O)NC(=O)c2cc3ccc(N(C)C)cc3o2)c1 [Example 164]	4.45 µM	> 20 µM				> 2e-05 M
CN(C)c1c(Br)cc2cc(C(=O)NS(=O)(=O)c3ccccc3-c3ccccc3)oc2c1F [Example 206, N-([1,1′-Biphenyl]-2-sulfonyl)-5-bromo-6-(dimethylamino)-7-fluoro-1-benzofuran-2-carboxamide]		9.5 µM	> 20 µM			> 2e-05 M
CN(C)c1ccc2cc(C(=O)NS(=O)(=O)c3ccccc3-c3ccccc3)n(C)c2c1 [Example 210, N-([1,1′-Biphenyl]-2-sulfonyl)-6-(dimethylamino)-1-methyl-1H-indole-2-carboxamide]	6.66 µM	11.3 µM				> 2e-05 M

The next lines start with results.

IC50 [1]	IC50 ([2]; Homo sapiens, MVLN)	EC50 (MDA-MB-436 cells; [3])	SMILES	IC50 [2]	EC50 (MDA-MB-436 cells)	EC50 (ZR-75-1 cells)
	> 20 µM	> 20 µM	CN(c1ccccc1)c1ccc2cc(C(=O)NS(=O)(=O)c3ccc(Cl)cc3Cl)oc2c1 [Example 9, N-(2,4-Dichlorophenyl)sulfonyl-6-(N-methylanilino)benzofuran-2-carboxamide]			> 2e-05 M
	14 µM	> 20 µM	CCCN(C)c1ccc2cc(C(=O)NS(=O)(=O)c3ccccc3-c3ccccc3)oc2c1 [Example 37, N-([1,1′-Biphenyl]-2-sulfonyl)-6-[methyl(propyl)amino]-1-benzofuran-2-carboxamide]			> 2e-05 M
	0.1 µM	> 20 µM	COCCN(C)c1ccc2cc(C(=O)NS(=O)(=O)c3ccccc3-c3ccccc3)oc2c1 [Example 39, N-([1,1′-Biphenyl]-2-sulfonyl)-6-[(2-methoxyethyl)(methyl)amino]-1-benzofuran-2-carboxamide]			3.41e-08 M
		> 20 µM	CN(C)c1ccc2cc(C(=O)NS(=O)(=O)c3ccccc3-c3ccc(CO)cc3)oc2c1 [Example 51, 6-(Dimethylamino)-N-[4′-(hydroxymethyl)[1,1′-biphenyl]-2-sulfonyl]-1-benzofuran-2-carboxamide]			1.01e-07 M
	3.07 µM	11.4 µM	O=C(NS(=O)(=O)c1ccccc1-c1ccccc1)c1cc2ccc(N3CCCC3=O)cc2o1 [Example 62, N-([1,1′-Biphenyl]-2-sulfonyl)-6-(2-oxopyrrolidin-1-yl)-1-benzofuran-2-carboxamide]			1.09e-06 M
0.287 µM	0.46 µM	> 20 µM	CCc1ccc2nc(C)c(S(=O)(=O)NC(=O)c3cc4ccc(N(C)C)cc4o3)n2n1 [Example 94, 6-(Dimethylamino)-N-(6-ethyl-2-methylimidazo[1,2-b]pyridazine-3-sulfonyl)-1-benzofuran-2-carboxamide]			
	0.603 µM	> 20 µM	CN(C)c1ccc2cc(C(=O)NS(=O)(=O)c3c(Cl)cccc3Cl)oc2c1 [Example 98, N-(2,6-Dichlorobenzene-1-sulfonyl)-(dimethylamino)-1-benzofuran-2-carboxamide]			8.17e-07 M
3.2 µM	> 20 µM	> 20 µM	CN(C)c1ccc2cc(C(=O)NS(=O)(=O)Cc3ccccn3)oc2c1 [Example 106, 6-(Dimethylamino)-N-[(pyridin-2-yl)methanesulfonyl]-1-benzofuran-2-carboxamide]			
	0.254 µM	> 20 µM	CN(C)c1ccc2cc(C(=O)NS(=O)(=O)c3cc(Cl)cc4cccnc34)oc2c1 [Example 124, N-(6-Chloroquinolone-8-sulfonyl)-6-(dimethylamino)-1-benzofuran-2-carboxamide]			
0.366 µM	2.55 µM		CC(C)c1ccc(C(C)C)c(S(=O)(=O)NC(=O)c2cc3ccc(N(C)C)cc3o2)c1 [Example 162]			> 2e-05 M
1.29 µM	5.77 µM		CN(C)c1ccc2cc(C(=O)NS(=O)(=O)c3cc(C(F)(F)F)ccc3NCC(F)F)oc2c1 [Example 165]			9.21e-06 M
0.137 µM	4.23 µM		CCOc1ccccc1S(=O)(=O)NC(=O)c1cc2cc(C(F)(F)F)c(N(C)C)cc2o1 [Example 201, 6-(Dimethylamino)-N-(2-ethoxybenzene-1-sulfonyl)-5-(trifluoromethyl)-1-benzofuran-2-carboxamide]			2.9e-06 M

Reference: patent US12357603B2, “Acyl sulfonamides for treating cancer” (Bayer Aktiengesellschaft, priority 2019, dated 2025)
